Experimental data: US8703796B2, “3H-imidazo [4, 5-B] pyridine-6-carboxamides as anti-inflammatory agents” (Boehringer Ingelheim International GmbH, priority 2008, dated 2014)

Molecular target: T1, recombinant human mPGES-1 (Homo sapiens, UniProt O14684)
T1 construct: made in house; host or cells: Rosetta E. coli (microsomal/membrane fraction)
T1 sequence (O14684 1-152): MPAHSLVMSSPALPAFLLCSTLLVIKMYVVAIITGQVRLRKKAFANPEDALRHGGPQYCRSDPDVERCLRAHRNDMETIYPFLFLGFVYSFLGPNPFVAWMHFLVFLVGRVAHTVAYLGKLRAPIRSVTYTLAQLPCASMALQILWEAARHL
Assay: mPGES-1 inhibition, HTRF detection of PGE2
Type: biochemical
Experimental: Microsomes from Rosetta E. coli bacteria expressing recombinant human mPGES-1 is dissolved in 0.1 M KPi pH 7.4 buffer containing 2.5 mM GSH. 50 μl of the enzyme is subsequently dispensed in a 384-well plate. 0.5 μl of the inhibitor dissolved in DMSO at is thereafter added to each well and incubated for 25 minutes at room temperature. Subsequently, 2 μl of PGH2 dissolved in an appropriate solvent is added to each well and after one minute the acidified stop solution containing FeCl2 is added. 4 μl of the total volume is transferred to a separate plate and diluted 750-fold in two separate steps before HTRF detection of PGE2.
The HTRf detection is performed by the use of a commercially available kit from CisBio essentially according to the manufacturer's protocol. Briefly, 10 μl of the diluted sample is transferred to a white 384-well plate. 5 μl of d2 and 5 μl Eu3+-Cryptate labeled anti-PGE2 is added to each well containing samples by the use of a Multidrop. The plate is covered with a plastic self-adhesive film, centrifuged at 1200 rpm for 1 minute and subsequently stored at +4° C. over night.
After over night incubation the fluorescence is measured by the use of an appropriate microplate reader. The fluorescence of europium cryptate, and d2 are measured using the following excitation and emission wavelength, europium cryptate: λmax^ex=307 nm, λmax^em=620 nm and d2: λmax^ex=620 nm, λmax^em=665 nm), respectively. The extent of the specific FRET is measured as a ratio of the emission intensity at 665 nm vs. that at 620 nm. A standard curve using synthetic PGE2 is used to quantify the amount of PGE2 in unknown samples.

Row | Compound | inhibition at 10 µM [%]
1 | O=C(N[C@H]1CC[C@H](C(F)(F)F)CC1)c1cc2nc(Nc3ccccc3C(F)(F)F)[nH]c2nc1OCC(F)F [Example 784, 2-(2-Trifluoromethyl-phenylamino)-5-(2,2-difluoro-ethoxy)-N-(trans-4-trifluoromethyl-cyclohexyl)-3H-imidazo[4,5-b]pyridine-6-carboxamide] | 97
2 | COCCOc1nc2c(cc1C(=O)N[C@H]1CC[C@H](C(F)(F)F)CC1)nc(Nc1c(Cl)cncc1Cl)n2C [Example 868, 2-(3,5-Dichloro-pyridin-4-ylamino)-5-(2-methoxy-ethoxy)-N-(trans-4-trifluoromethyl-cyclohexyl)-3-methyl-3H-imidazo[4,5-b]pyridine-6-carboxamide] | 100
3 | CCCCCC[C@H](C)NC(=O)c1cnc2c(c1)nc(Nc1c(Cl)cccc1Cl)n2C [Example 471, (S)-2-(2,6-Dichlorophenylamino)-3-methyl-N-(oct-2-yl)-3H-imidazo[4,5-b]pyridine-6-carboxamide] | 99
4 | Cn1c(Nc2c(Cl)cc(F)cc2Cl)nc2cc(C(=O)Nc3ccc(Br)cc3)c(OCC(F)F)nc21 [Example 818, 2-(2,6-Dichloro-4-fluoro-phenylamino)-5-(2,2-difluoro-ethoxy)-N-(4-bromo-phenyl)-3-methyl-3H-imidazo[4,5-b]pyridine-6-carboxamide] | 99
5 | Cn1c(Nc2c(Cl)cccc2Cl)nc2cc(C(=O)NC3CCCC(C)(C)C3)cnc21 (stereo not drawn) [Example 454, 2-(2,6-Dichlorophenylamino)-N-(3,3-dimethylcyclohexyl)-3-methyl-3H-imidazo[4,5-b]pyridine-6-carboxamide] | 99
6 | Cn1c(Nc2c(Cl)cncc2Cl)nc2cc(C(=O)Nc3cc(C(F)(F)F)ccn3)c(OCC(F)(F)F)nc21 [Example 852, 2-(3,5-Dichloro-pyridin-4-ylamino)-5-(2,2,2-trifluoro-ethoxy)-N-(4-trifluoromethyl-pyridin-2-yl)-3-methyl-3H-imidazo[4,5-b]pyridine-6-carboxamide] | 95
7 | Cn1c(Nc2c(Cl)cc(F)cc2Cl)nc2cc(C(=O)NCC(F)(F)C(F)(F)C(F)(F)C(F)(F)F)c(OCC(F)F)nc21 [Example 872, 2-(2,6-Dichloro-4-fluoro-phenylamino)-5-(2,2-difluoro-ethoxy)-N-(2,2,3,3,4,4,5,5,5-nonafluoropentyl)-3-methyl-3H-imidazo[4,5-b]pyridine-6-carboxamide] | 100
8 | CC1(C)CCC(NC(=O)c2cnc3c(c2)nc(Nc2c(Cl)cccc2Cl)n3Cc2ccccc2)CC1 [Example 413, 3-Benzyl-2-(2,6-dichlorophenylamino)-N-(4,4-dimethylcyclohexyl)-3H-imidazo[4,5-b]pyridine-6-carboxamide] | 100
9 | Cn1c(Nc2c(Cl)ccc(Cl)c2F)nc2cc(C(=O)N[C@H]3CC[C@H](C(F)(F)F)CC3)c(OCC(F)F)nc21 [Example 787, 2-(3,6-Dichloro-2-fluoro-phenylamino)-5-(2,2-difluoro-ethoxy)-N-(trans-4-trifluoromethyl-cyclohexyl)-3-methyl-3H-imidazo[4,5-b]pyridine-6-carboxamide] | 98
10 | Cn1c(Nc2c(Cl)cccc2Cl)nc2cc(C(=O)N[C@H]3CC[C@H](C(F)F)CC3)cnc21 [Example 560] | 93
11 | O=C(NCc1ncccc1C(F)(F)F)c1cc2nc(Nc3c(Cl)cc(F)cc3Cl)[nH]c2nc1OCC(F)(F)F [Example 830, 2-(2,6-Dichloro-4-fluoro-phenylamino)-5-(2,2,2-trifluoro-ethoxy)-N-((3-trifluoromethyl-pyridin-2-yl)-methyl)-3H-imidazo[4,5-b]pyridine-6-carboxamide] | 98
12 | Cc1ccnc(Cl)c1Nc1nc2cc(C(=O)N[C@H]3CC[C@H](C(F)(F)F)CC3)c(OCC(F)F)nc2n1C [Example 788, 2-(2-Chloro-4-methyl-pyridin-3-ylamino)-5-(2,2-difluoro-ethoxy)-N-(trans-4-trifluoromethyl-cyclohexyl)-3-methyl-3H-imidazo[4,5-b]pyridine-6-carboxamide] | 98
13 | Cn1c(Nc2c(Cl)cncc2Cl)nc2cc(C(=O)NCC(F)(F)C(F)(F)C(F)(F)C(F)(F)F)c(OCCF)nc21 [Example 834, 2-(3,5-Dichloro-pyridin-4-ylamino)-5-(2-fluoro-ethoxy)-N-(2,2,3,3,4,4,5,5,5-nonafluoropentyl)-3-methyl-3H-imidazo[4,5-b]pyridine-6-carboxamide] | 99
14 | O=C(N[C@H]1CC[C@H](C(F)(F)F)CC1)c1cnc2[nH]c(Nc3c(Cl)cccc3Cl)nc2c1 [Example 459, 2-(2,6-Dichlorophenylamino)-N-((1r,4r)-4-trifluoromethyl-cyclohexyl)-3H-imidazo[4,5-b]pyridine-6-carboxamide] | 100
15 | Cn1c(Nc2c(Cl)cncc2Cl)nc2cc(C(=O)N[C@H]3CC[C@H](C(F)(F)F)CC3)c(OC3CCOC3)nc21 (stereo partly drawn) [Example 846, 2-(3,5-Dichloro-pyridin-4-ylamino)-5-(tetrahydrofuran-3-yl-oxy)-N-(trans-4-trifluoromethyl-cyclohexyl)-3-methyl-3H-imidazo[4,5-b]pyridine-6-carboxamide] | 100
16 | O=C(N[C@H]1CC[C@H](C(F)(F)F)CC1)c1cc2nc(Nc3c(Cl)cc(F)cc3Cl)[nH]c2nc1OCC(F)F [Example 823, 2-(2,6-Dichloro-4-fluoro-phenylamino)-5-(2,2-difluoro-ethoxy)-N-(trans-4-trifluoromethyl-cyclohexyl)-3H-imidazo[4,5-b]pyridine-6-carboxamide] | 91
17 | CC(=O)N(C)CCOc1nc2c(cc1C(=O)Nc1ccc(Br)cc1)nc(Nc1c(Cl)cncc1Cl)n2C [Example 810, 2-(3,5-Dichloro-pyridin-4-ylamino)-5-(2-(acetyl-methyl-amino)-ethoxy)-N-(4-bromo-phenyl)-3-methyl-3H-imidazo[4,5-b]pyridine-6-carboxamide] | 96
18 | O=C(N[C@H]1CC[C@H](C(F)(F)F)CC1)c1cc2nc(Nc3c(F)cccc3Cl)[nH]c2nc1OCC(F)F [Example 785, 2-(2-Chloro-6-fluoro-phenylamino)-5-(2,2-difluoro-ethoxy)-N-(trans-4-trifluoromethyl-cyclohexyl)-3H-imidazo[4,5-b]pyridine-6-carboxamide] | 100
19 | Cn1c(Nc2c(Cl)cccc2Cl)nc2cc(C(=O)NC3CCC4(CC4)C3)cnc21 (stereo not drawn) [Example 506, 2-(2,6-Dichlorophenylamino)-3-methyl-N-(spiro[2.4]heptan-5-yl)-3H-imidazo[4,5-b]pyridine-6-carboxamide] | 100
20 | Cc1ccnc(Br)c1Nc1nc2cc(C(=O)N[C@H]3CC[C@H](C(F)(F)F)CC3)c(OCC(F)F)nc2n1C [Example 786, 2-(2-Bromo-4-methyl-pyridin-3-ylamino)-5-(2,2-difluoro-ethoxy)-N-(trans-4-trifluoromethyl-cyclohexyl)-3-methyl-3H-imidazo[4,5-b]pyridine-6-carboxamide] | 92
21 | CCCC[C@@H](C)NC(=O)c1cnc2[nH]c(Nc3c(Cl)cccc3Cl)nc2c1 [Example 517, (R)-2-(2,6-Dichlorophenylamino)-N-(hex-2-yl)-3H-imidazo[4,5-b]pyridine-6-carboxamide] | 100
